T1: hCX3CR1 (Homo sapiens, UniProt P49238)
T1 sequence (P49238 1-355): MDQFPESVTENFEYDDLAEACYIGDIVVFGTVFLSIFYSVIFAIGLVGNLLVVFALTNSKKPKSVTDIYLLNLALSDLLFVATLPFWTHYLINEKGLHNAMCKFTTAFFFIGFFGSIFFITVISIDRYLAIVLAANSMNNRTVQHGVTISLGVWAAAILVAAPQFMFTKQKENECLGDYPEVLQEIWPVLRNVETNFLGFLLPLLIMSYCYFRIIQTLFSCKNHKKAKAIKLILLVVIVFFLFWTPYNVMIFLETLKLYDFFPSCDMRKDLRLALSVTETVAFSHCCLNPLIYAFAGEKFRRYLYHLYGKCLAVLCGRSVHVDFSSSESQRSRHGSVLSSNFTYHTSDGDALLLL

T2: mCX3CR1 (Mus musculus, UniProt Q9Z0D9)
T2 construct: expressed in transfected cells; stably expresses a Ca2+ sensitive photo-protein
T2 sequence (Q9Z0D9 1-354): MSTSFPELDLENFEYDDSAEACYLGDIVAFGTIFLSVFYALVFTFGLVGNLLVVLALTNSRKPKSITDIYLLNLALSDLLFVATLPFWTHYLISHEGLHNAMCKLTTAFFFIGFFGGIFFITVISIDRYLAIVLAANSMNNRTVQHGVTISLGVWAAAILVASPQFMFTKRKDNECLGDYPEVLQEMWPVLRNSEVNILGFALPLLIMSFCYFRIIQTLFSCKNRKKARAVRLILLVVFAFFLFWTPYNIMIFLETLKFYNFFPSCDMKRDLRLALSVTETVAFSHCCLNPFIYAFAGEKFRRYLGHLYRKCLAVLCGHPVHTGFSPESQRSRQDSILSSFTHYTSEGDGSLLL

T3: rCX3CR1 (Rattus norvegicus, UniProt P35411)
T3 construct: expressed in transfected cells; stably expresses a Ca2+ sensitive photo-protein
T3 sequence (P35411 1-354): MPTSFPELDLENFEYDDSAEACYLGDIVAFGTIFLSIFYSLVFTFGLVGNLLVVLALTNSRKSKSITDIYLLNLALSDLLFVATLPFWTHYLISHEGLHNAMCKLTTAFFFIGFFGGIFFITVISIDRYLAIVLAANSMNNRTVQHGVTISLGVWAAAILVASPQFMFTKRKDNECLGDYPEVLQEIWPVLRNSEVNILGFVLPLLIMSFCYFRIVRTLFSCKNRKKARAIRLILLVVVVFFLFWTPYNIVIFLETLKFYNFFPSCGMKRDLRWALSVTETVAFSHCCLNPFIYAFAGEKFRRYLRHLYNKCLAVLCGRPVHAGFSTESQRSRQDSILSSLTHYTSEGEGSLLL


Experiments:
Format in all cases: cell-based
hCX3CR1 [1] = biological target: T1, hCX3CR1; assay: ChAMPion assay (CHO ChAMPion/CX3CR1 K1.6, cAMP/CNG channel, photoprotein luminescence); set-up: expressed in transfected cells; stably expresses a Ca2+ sensitive photo-protein; details: ChAMPion assay, CHO ChAMPion/CX3CR1 K1.6, Forskolin 3 μM; read-out: hCX3CR1 agonism EC50
Protocol: Buffers and reagents. PBS (D-PBS without calcium and magnesium; EuroClone); Trypsin (Trypsin 0.05%, EDTA 0.02% in PBS; EuroClone); DMSO (Sigma); Tyrode buffer Ca^2+ free: in-house solution (130 mM NaCl, 5 mM KCl, 1 mM MgCl^2, 5 mM NaHCO3, 20 mM HEPES (pH 7.4); sterile filtered and autoclaved); Tyrode buffer 10 mM Ca^2+: in-house solution (130 mM NaCl, 5 mM KCl, 10 mM CaCl2), 1 mM MgCl2, 5 mM NaHCO3, 20 mM HEPES, in water at pH 7.4, sterile filtered); Coelenterazine, native (Biosynth); stock 10 mM; Agonist: Recombinant Human Fractalkine (CX3CL1) (PeproTech); stock: 10 μM in standard Tyrode buffer/BSA 01%; stored at −20° C.
Cell line. The final clone for the hCX3CR1 assay was CHO ChAMPion/CX3CR1 K1.6. ChAMPion technology is based on the co-expression of a Ca^2+ sensitive photoprotein and of a cyclic nucleotide-gated (CNG) channel acting as a cAMP biosensor in a CHO-K1 cell line. CNG channels are non-selective ligand gated cation channels that can be opened by the direct interaction with either cAMP or cGMP, at the intracellular C-terminus site of the channel. Channel opening allows the flux of extracellular calcium into the cell cytoplasm and its transient elevation can be recorded by means of several different calcium indicators. In the chAMPion system, the CNG channel has been modified to display sensitivity to cAMP levels in the physiological range. In addition the calcium influx through the opened channel is immediately detected by the recording of the photoprotein-emitted flash type luminescence signal.
The chAMPion cell line system can monitor the activation of transfected Gαi-coupled receptors, which elicit changes in 3,‘5’-adenosine cyclic monophosphate (cAMP) levels, which in turn is responsible for CNG opening and consequent Ca^2+ influx.
Assay protocol. Experiments were performed in 384 MTP format. Cells were seeded at 10,000 cells/well in 25 μL/well complete growth medium without selection antibiotics in 384-well plates. Twenty-four hours later, cells were assayed for the response to various compounds using the Ca^2+ sensitive photo-protein stably expressed in the cells as readout.
The experiment was performed in a 384-well format according to the following procedure: • 24h after seeding, pre-incubate the cells at room temperature for 1 hour. • Then remove the culture medium. • Load cells with 20 μL/well of Ca^2+ free tyrode buffer+ceolenterazine 5 μM. • Incubate cell plates for 4 hours at RT. • 10 μl/well of 3× concentrated compounds in Ca^2+ free tyrode buffer+Forskolin 9 μM (final Forskolin concentration=3 μM) are applied to the cells (at 10 μl/s). Ten minutes later a second injection is performed: 10 μl/well of Ca^2+ free tyrode buffer+BSA 0.04% (final BSA concentration=0.01%). Twenty minutes later a third injection is performed: 20 μl/well of 10 mM Ca^2+ tyrode buffer (final Ca^2+ concentration was 3.3 mM) and luminescence is recorded for 90 seconds.
Data from FLIPRTETRA measurements are analyzed with the Genedata Screener© software.

hCX3CR1 [2] = biological target: T1, hCX3CR1; assay: Ga16 assay, CX3CR1 agonism, Ca2+ sensitive photo-protein readout (FLIPRTETRA); set-up: expressed in transfected cells; stably expresses a Ca2+ sensitive photo-protein; details: human CX3CR1 cell line
Outline: (§1)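 Cells expressing human, mouse or rat CX3CR1 with a stably expressed Ca2+-sensitive photoprotein were loaded with 10 μM coelenterazine in tyrode buffer pH 7.4 for 3 h at room temperature. Agonist-mode luminescence kinetics were recorded for 90 s after compound injection on FLIPRTETRA. Dose-response runs were done in quadruplicate, with fractalkine as the reference agonist.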

mCX3CR1 = biological target: T2, mCX3CR1; assay: as above; details: mouse CX3CR1 cell line
Outline: as §1

rCX3CR1 = biological target: T3, rCX3CR1; assay: as above; details: rat CX3CR1 cell line
Outline: as §1

primary human monocytes = assay: Chemotaxis assay, transwell migration of primary human monocytes; details: 4 hours, CellTiter-Glo, FIG. 2
Protocol: Primary Human Monocytes Migrate Along a Chemotactic Gradient towards CX3CR1 Agonists
The chemotaxis assay assesses the CX3CR1-dependent migration of primary human monocytes towards fractalkine and active CX3CR1 agonists. To determine the migration index, monocytes were positively selected from freshly isolated human PBMCs and seeded at 50,000 cells per insert, on the upper chamber of a transwell plate with a pore size of 5 μm. […] Monocytes were allowed to migrate for 4 hours, and subsequently detected in the lower chamber with the CellTiter-Glo Assay, which measures metabolically active cells.

EC50 (hCX3CR1 [1])	EC50 (hCX3CR1 [2])	EC50 (mCX3CR1)	EC50 (rCX3CR1)	Molecule	migration of primary human monocytes towards substance (chemotaxis) (primary human monocytes)
0.94 µM	11 µM	24.9 µM	23.7 µM	O=C(NCC1(CN2CCCC2)CCCCC1)c1cc2c(s1)CCCCCC2 [Example 18, N-[[1-(pyrrolidin-1-ylmethyl)cyclohexyl]methyl]-4,5,6,7,8,9-hexahydrocycloocta[b]thiophene-2-carboxamide]	
36.5 µM	13.7 µM	46.9 µM	12.9 µM	CN(CCO)CC1(CNC(=O)c2cc3c(s2)CCCCC3)CCCC1 [Example 34, N-[[1-[[2-hydroxyethyl(methyl)amino]methyl]cyclopentyl]methyl]-5,6,7,8-tetrahydro-4H-cyclohepta[b]thiophene-2-carboxamide]	
				fractalkine: recombinant human fractalkine (CX3CL1), large membrane-anchored or secreted cytokine, ligand of CX3CR1 (protein, UniProt P78423 25-397, looked up) Fractalkine: QHHGVTKCNITCSKMTSKIPVALLIHYQQNQASCGKRAIILETRQHRLFCADPKEQWVKDAMQHLDRQAAALTRNGGTFEKQIGEVKPRTTPAAGGMDESVVLEPEATGESSSLEPTPSSQEAQRALGTSPELPTGVTGSSGTRLPPTPKAQDGGPVGTELFRVPPVSTAATWQSSAPHQPGPSLWAEAKTSEAPSTQDPSTQASTASSPAPEENAPSEGQRVWGQGQSPRPENSLEREEMGPVPAHTDAFQDWGPGSMAHVSVVPVSSEGTPSREPVASGSWTPKAEEPIHATMDPQRLGVLITPVPDAQAATRRQAVGLLAFLGLLFCLGVAMFTYQSLQGCPRKMAGEMAEGLRYIPRSCGSNSYVLVPV	monocytes migrated towards fractalkine
